Measurements taken from the supplement of paper PMC13380429.

Legend:
Details in all cases: 72 h
Calu-3 [1] = assay: cell viability relative to DMSO; higher = less toxic
Caco-2 [2] = assay: as above
Vero E6 [3] = assay: as above
HepG2 [4] = assay: as above
U2OS [5] = assay: as above
Calu-3 [6] = assay: relative viability EC50 (midpoint between 100% and the lowest measured viability); higher = less toxic
Caco-2 [7] = assay: as above
Vero E6 [8] = assay: as above
Calu-3 [9] = assay: drug sensitivity score (DSS) for viability; higher = more toxic; extreme values may be limits of the assay
Caco-2 [10] = assay: as above
Vero E6 [11] = assay: as above
HepG2 [12] = assay: as above
U2OS [13] = assay: as above
U2OS [14] = assay: relative viability EC50 (midpoint between 100% and the lowest measured viability); higher = less toxic
HepG2 [15] = assay: as above

Compound | cell viability (Calu-3 [1]; 1 nM) | cell viability (Calu-3 [1]; 10 nM) | cell viability (Calu-3 [1]; 100 nM) | cell viability (Calu-3 [1]; 1000 nM) | cell viability (Calu-3 [1]; 10000 nM) | cell viability (Caco-2 [2]; 1 nM) | cell viability (Caco-2 [2]; 10 nM) | cell viability (Caco-2 [2]; 100 nM) | cell viability (Caco-2 [2]; 1000 nM) | cell viability (Caco-2 [2]; 10000 nM) | cell viability (Vero E6 [3]; 1 nM) | cell viability (Vero E6 [3]; 10 nM) | cell viability (Vero E6 [3]; 100 nM) | cell viability (Vero E6 [3]; 1000 nM) | cell viability (Vero E6 [3]; 10000 nM) | cell viability (HepG2 [4]; 1 nM) | cell viability (HepG2 [4]; 10 nM) | cell viability (HepG2 [4]; 100 nM) | cell viability (HepG2 [4]; 1000 nM) | cell viability (HepG2 [4]; 10000 nM) | cell viability (U2OS [5]; 1 nM) | cell viability (U2OS [5]; 10 nM) | cell viability (U2OS [5]; 100 nM) | cell viability (U2OS [5]; 1000 nM) | cell viability (U2OS [5]; 10000 nM) | relative viability EC50 (Calu-3 [6]) | relative viability EC50 (Caco-2 [7]) | relative viability EC50 (Vero E6 [8]) | drug sensitivity score (Calu-3 [9]) | drug sensitivity score (Caco-2 [10]) | drug sensitivity score (Vero E6 [11]) | drug sensitivity score (HepG2 [12]) | drug sensitivity score (U2OS [13]) | relative viability EC50 (U2OS [14]) | relative viability EC50 (HepG2 [15])
CCOc1cc(N2CCC(O)CC2)ccc1Nc1ncc2c(n1)N(C)c1ccccc1C(=O)N2C [XMD8-92] | 90.2% | 112% | 98.1% | 109% | 77.5% | 96.1% | 93% | 90% | 89.8% | 84.6% | 99.7% | 93.2% | 99.7% | 93.5% | 41.2% | 101% | 99.4% | 102% | 104% | 74.4% | 92.7% | 105% | 93.6% | 94.6% | 73.3% | > 10 µM | > 10 µM | 2.26 µM | 0.5 | 0.9 | 4.3 | 0.8 | 1.8 | – | –
Cn1c(=O)c2[nH]cnc2n(C)c1=O [aminophylline] | 99.2% | 114% | 100% | 108% | 114% | – | – | – | – | – | 99.5% | 100% | 94.9% | 93.1% | 112% | – | – | – | – | – | 99.1% | 98.9% | 94.9% | 101% | 103% | > 10 µM | – | > 10 µM | 0 | – | 0 | – | 0 | > 10 µM | –
Cc1cc(CCC[C@H](CC(=O)NO)C(=O)N[C@H](C(=O)N[C@H](C)c2ccccc2)C(C)(C)C)ccc1-c1ccccc1 | 101% | 90.9% | 91.8% | 94.8% | 77.5% | 105% | 95.2% | 110% | 99.4% | 51.4% | 103% | 104% | 99.9% | 97% | 67.5% | 110% | 116% | 99.6% | 106% | 35.1% | 99.1% | 102% | 97.3% | 99.6% | 46.7% | > 10 µM | – | – | 1.1 | 2.6 | 1.9 | 3.1 | 2.9 | 3.12 µM | 3.6 µM
CC1=C(/C=C/C(C)=C/C=C/C(C)=C/C(=O)Nc2ccc(O)cc2)C(C)(C)CCC1 [fenretinide] | 98.9% | 99.9% | 93.3% | 89.5% | 84% | 98.7% | 103% | 100% | 93.2% | 67.9% | 95% | 98.9% | 101% | 101% | 91.1% | 99.6% | 92.6% | 99.1% | 91.3% | 80% | 97.7% | 97.8% | 99.5% | 104% | 86.8% | > 10 µM | – | > 10 µM | 0.9 | 2.5 | 0 | 1.2 | 0.1 | > 10 µM | > 10 µM
CNC(=O)[C@@H](NC(=O)[C@H](CC(C)C)[C@H](O)C(=O)NO)C(C)(C)C [marimastat] | 96.2% | 102% | 86.4% | 87.4% | 81.3% | 79.5% | 106% | 89.9% | 99.9% | 70.5% | 108% | 103% | 100% | 104% | 90.7% | 103% | 99.7% | 121% | 106% | 113% | 98.7% | 100% | 92.9% | 95.9% | 91.5% | > 10 µM | – | > 10 µM | 3.6 | 1.3 | 0 | 0 | 0 | > 10 µM | > 10 µM
C[C@@H]1COC(Nc2ccc3ncnc(Nc4ccc(OCc5nccs5)c(Cl)c4)c3c2)=N1 | 103% | 107% | 81.8% | 41.3% | 36.1% | 95.7% | 104% | 97.2% | 81.6% | 67.7% | 107% | 99.5% | 94% | 70.7% | 67% | 100% | 100% | 94.8% | 92.3% | 98.8% | 97.8% | 96.7% | 98.9% | 93.3% | 90% | 0.184 µM | – | – | 13.2 | 3.4 | 5.6 | 0 | 0 | > 10 µM | > 10 µM
C[C@H](NC(=O)/C(C#N)=C/c1ccc(O)c(O)c1)c1ccccc1 [tyrphostin-AG-835] | 89.4% | 96.8% | 109% | 97.2% | 98.2% | 92.2% | 97.2% | 90.5% | 93.7% | 74.6% | 98% | 90.4% | 98.5% | 89.6% | 89.6% | 109% | 90.9% | 106% | 97.3% | 78.9% | 97.2% | 98.5% | 98.3% | 98.3% | 91% | > 10 µM | – | > 10 µM | 0 | 1.5 | 0 | 1 | 0 | > 10 µM | > 10 µM
CN(C)C(=O)C(=O)c1cn(C)c2cc(Cl)c(C(=O)N3CCC(Cc4ccc(F)cc4)CC3)cc12 [SX-011] | 94.6% | 108% | 116% | 97.3% | 91.2% | 93.9% | 96.3% | 98.3% | 93.5% | 70.4% | 110% | 94.6% | 100% | 93.2% | 89.2% | 112% | 102% | 104% | 102% | 86.5% | 99.1% | 100% | 97.1% | 102% | 91.2% | > 10 µM | – | > 10 µM | 0 | 2.3 | 0.1 | 0.1 | 0 | > 10 µM | > 10 µM
O=C1NC(O)CCN1[C@@H]1O[C@H](CO)[C@@H](O)[C@H]1O (some centres undefined) [tetrahydrouridine] | 108% | 102% | 103% | 101% | 96.2% | 101% | 100% | 95.2% | 102% | 99.2% | – | – | – | – | – | 112% | 101% | 98.1% | 99.1% | 110% | – | – | – | – | – | > 10 µM | > 10 µM | – | 0 | 0 | – | 0 | – | – | > 10 µM
CC[C@@H]([C@H](C)O)n1ncn(-c2ccc(N3CCN(c4ccc(OC[C@@H]5CO[C@@](Cn6cncn6)(c6ccc(F)cc6F)C5)cc4)CC3)cc2)c1=O [posaconazole] | 106% | 103% | 91.5% | 92.9% | 93% | 97.6% | 99% | 94.3% | 86.7% | 70.2% | 98.8% | 106% | 93.4% | 92.8% | 43.2% | 97.8% | 86.9% | 105% | 96.6% | 27.5% | 92.9% | 101% | 93.7% | 90% | 93.8% | > 10 µM | – | 2.13 µM | 0 | 2.4 | 4.3 | 4.5 | 0 | > 10 µM | 2.81 µM
COc1cc2nc(C3CC3)nc(N3CCN(c4ccccc4OC)CC3)c2cc1OC [ML314] | 96.6% | 101% | 102% | 92.7% | 78.3% | 100% | 91.5% | 97.9% | 94.8% | 59% | 96.9% | 109% | 95% | 87.6% | 62.9% | 102% | 92.4% | 100% | 91.6% | 54.1% | 96.5% | 97.4% | 91.5% | 98.2% | 87.1% | > 10 µM | – | – | 1.6 | 2.9 | 3.1 | 3.8 | 0 | > 10 µM | –
CC(=O)c1c(C)c2cnc(Nc3ccc(N4CCNCC4)cn3)nc2n(C2CCCC2)c1=O [palbociclib] | 101% | 90.6% | 98.4% | 85.8% | 92.8% | 97.1% | 90.6% | 95.6% | 86.2% | 50.4% | 97.9% | 101% | 96.4% | 77.3% | 26.9% | 92.5% | 88.5% | 80.7% | 65.9% | 29.4% | 104% | 94.8% | 98.8% | 92.3% | 57.3% | > 10 µM | – | 1.4 µM | 0 | 4.5 | 7.2 | 9.7 | 3.4 | – | 0.525 µM
O=C(c1c(F)ccc(NS(=O)(=O)N2CC[C@@H](F)C2)c1F)c1c[nH]c2ncc(-c3cnc(C4CC4)nc3)cc12 [PLX8394] | 105% | 105% | 83.6% | 104% | 114% | 102% | 99.2% | 94.4% | 91.7% | 71.8% | 102% | 96.6% | 104% | 98.8% | 113% | 91% | 90.5% | 106% | 101% | 79.1% | 96% | 105% | 104% | 107% | 93.3% | > 10 µM | – | > 10 µM | 0 | 1.9 | 0 | 0.6 | 0 | > 10 µM | > 10 µM
Cc1c(C)c2c(c(C)c1O)CCC(C)(C)O2 [APC-100] | 96.6% | 95.1% | 100% | 104% | 100% | 90.4% | 118% | 100% | 131% | 71.8% | 93.5% | 85.4% | 99.1% | 88.1% | 102% | 120% | 88.6% | 120% | 95.7% | 99.2% | 91.4% | 100% | 94.3% | 100% | 102% | > 10 µM | – | > 10 µM | 0 | 0.6 | 0 | 0 | 0 | > 10 µM | > 10 µM
